Data: ChEMBL document CHEMBL1201862, “PubChem BioAssay data set” (2004)
Active and inactive are the calls of the source.

Key:
Protein Rev = Protein Rev (Human immunodeficiency virus type 1 group M subtype B (isolate WMJ22)(HIV-1), UniProt P05866); assay: HIV-1 Rev-RRE RNA binding disruptors, dose response, biochemical, protein-RNA interaction (AID 842); design: species or system Human immunodeficiency virus 1
[1] = biological target: Dual specificity protein phosphatase 3 (Homo sapiens, UniProt P51452); assay: VHR1 inhibitor Ki determination, SAR follow-up, biochemical, colorimetric (AID 2004)
Sequence of Dual specificity protein phosphatase 3 (P51452 whole entry): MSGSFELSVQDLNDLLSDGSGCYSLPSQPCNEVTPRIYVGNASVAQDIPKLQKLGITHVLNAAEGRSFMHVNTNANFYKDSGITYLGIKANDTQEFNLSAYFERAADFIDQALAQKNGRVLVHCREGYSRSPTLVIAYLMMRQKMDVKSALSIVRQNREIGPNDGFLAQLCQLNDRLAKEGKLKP

Large T antigen = Large T antigen (Simian virus 40, UniProt P03070); assay: A confirmatory biochemical assay using the ADP-Hunter methodology, purified TAg, and ATP to quantify activity of synthesized compounds that inhibit the ATPase activity of Tag (3). [Related pubchem assays (depositor defined):AID1903, AID1909, AID2102, AID2501, AID2615, AID2775, AID435001, AID449729]; design: species or system Betapolyomavirus macacae
Sequence of Large T antigen (P03070 whole entry): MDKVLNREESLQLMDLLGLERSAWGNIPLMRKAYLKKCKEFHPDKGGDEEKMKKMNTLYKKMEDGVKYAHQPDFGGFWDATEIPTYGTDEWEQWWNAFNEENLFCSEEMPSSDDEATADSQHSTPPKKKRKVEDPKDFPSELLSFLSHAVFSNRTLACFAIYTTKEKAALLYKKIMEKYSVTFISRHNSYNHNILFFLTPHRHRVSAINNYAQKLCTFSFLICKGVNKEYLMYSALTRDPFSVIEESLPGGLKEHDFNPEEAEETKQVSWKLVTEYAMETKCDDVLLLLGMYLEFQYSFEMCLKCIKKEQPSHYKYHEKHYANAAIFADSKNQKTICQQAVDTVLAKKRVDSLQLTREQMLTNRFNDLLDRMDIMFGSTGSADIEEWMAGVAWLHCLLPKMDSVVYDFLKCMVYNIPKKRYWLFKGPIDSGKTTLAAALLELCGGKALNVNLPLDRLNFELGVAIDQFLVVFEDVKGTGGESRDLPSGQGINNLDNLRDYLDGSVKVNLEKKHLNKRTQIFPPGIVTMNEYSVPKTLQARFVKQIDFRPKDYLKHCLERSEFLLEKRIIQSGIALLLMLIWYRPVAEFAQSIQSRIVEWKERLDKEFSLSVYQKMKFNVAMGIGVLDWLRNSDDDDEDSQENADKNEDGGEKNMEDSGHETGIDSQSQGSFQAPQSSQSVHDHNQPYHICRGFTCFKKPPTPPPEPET

[2] = biological target: T1, Kappa-type opioid receptor (Homo sapiens, UniProt P41145); format: functional
T1 sequence (P41145 whole entry): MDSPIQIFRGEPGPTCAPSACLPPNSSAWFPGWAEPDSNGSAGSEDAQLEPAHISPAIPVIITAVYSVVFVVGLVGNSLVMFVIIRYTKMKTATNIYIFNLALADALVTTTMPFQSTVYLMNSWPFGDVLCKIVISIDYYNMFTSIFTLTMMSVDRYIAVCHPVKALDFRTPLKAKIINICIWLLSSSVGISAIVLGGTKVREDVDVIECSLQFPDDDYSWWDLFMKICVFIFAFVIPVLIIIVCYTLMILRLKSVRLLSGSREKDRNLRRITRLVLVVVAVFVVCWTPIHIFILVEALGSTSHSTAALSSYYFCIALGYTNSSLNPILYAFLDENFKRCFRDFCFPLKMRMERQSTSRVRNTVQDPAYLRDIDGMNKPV

[3] = biological target: T1, Kappa-type opioid receptor; format: functional; remark: listed apart in the source
Mu-type opioid receptor [4] = biological target: T2, Mu-type opioid receptor (Homo sapiens, UniProt P35372); assay: MOR agonists by imaging, SAR follow-up, image-based (AID 2352); format: functional
T2 sequence (P35372 whole entry): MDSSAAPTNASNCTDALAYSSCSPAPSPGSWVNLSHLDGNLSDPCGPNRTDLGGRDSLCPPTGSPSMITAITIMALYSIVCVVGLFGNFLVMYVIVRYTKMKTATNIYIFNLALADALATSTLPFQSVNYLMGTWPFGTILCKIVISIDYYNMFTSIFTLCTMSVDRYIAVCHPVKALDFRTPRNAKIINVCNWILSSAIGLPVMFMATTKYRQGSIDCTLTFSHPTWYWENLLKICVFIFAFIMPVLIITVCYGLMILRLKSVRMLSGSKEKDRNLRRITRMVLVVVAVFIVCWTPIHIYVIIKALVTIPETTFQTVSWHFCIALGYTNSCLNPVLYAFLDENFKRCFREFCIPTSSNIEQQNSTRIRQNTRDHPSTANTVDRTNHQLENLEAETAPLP

[5] = biological target: T3, Delta-type opioid receptor (Homo sapiens, UniProt P41143); assay: DOR agonists, SAR follow-up, image-based (AID 2370); format: functional
T3 sequence (P41143 whole entry): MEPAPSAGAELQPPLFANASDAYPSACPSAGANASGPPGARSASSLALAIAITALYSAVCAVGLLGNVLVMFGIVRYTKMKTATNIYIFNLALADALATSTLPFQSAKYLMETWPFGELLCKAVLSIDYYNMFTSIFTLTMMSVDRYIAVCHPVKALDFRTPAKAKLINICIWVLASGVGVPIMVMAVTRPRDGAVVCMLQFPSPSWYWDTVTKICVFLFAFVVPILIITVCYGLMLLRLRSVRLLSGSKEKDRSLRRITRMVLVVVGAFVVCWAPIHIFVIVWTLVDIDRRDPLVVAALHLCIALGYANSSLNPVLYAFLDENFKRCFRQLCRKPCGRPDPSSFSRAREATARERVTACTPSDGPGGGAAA

[6] = biological target: T1, Kappa-type opioid receptor; assay: KOR antagonists by imaging, SAR follow-up, image-based (AID 2348); format: functional
Mu-type opioid receptor [7] = biological target: T2, Mu-type opioid receptor; assay: MOR antagonists, SAR follow-up, image-based (AID 2420); format: functional;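 note: compounds added before stimulation of receptor with agonist DAMGO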
[8] = biological target: T3, Delta-type opioid receptor; assay: DOR antagonists, SAR follow-up, image-based (AID 2357); format: functional

Sequence of Protein Rev (P05866 whole entry): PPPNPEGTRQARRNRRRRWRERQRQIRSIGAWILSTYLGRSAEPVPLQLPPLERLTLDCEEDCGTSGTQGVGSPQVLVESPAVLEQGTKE

## CNCCCOc1ccc(C(C)(C)c2ccccc2)cc1
Protein Rev
  IC50: > 79.4 µM (not active)

## CN1C(=O)C(=Cc2ccc(N3CCCC3)c([N+](=O)[O-])c2)C(=O)N(C)C1=O
[1]
  Ki: 24.5 µM (inactive)

## Oc1ccc(Oc2ccc(O)cc2)cc1
Large T antigen
  IC50: 37.7 µM (active)

## CC(C)(C)c1ccc(CSc2nnc(-c3ccccn3)n2Cc2ccco2)cc1
[2]
  EC50: 1.02 µM
[3]
  EC50: 2.18 µM
Mu-type opioid receptor [4]
  EC50: > 32 µM (inactive)
[5]
  EC50: > 32 µM (inactive)
[6]
  IC50: > 32 µM (inactive)
Mu-type opioid receptor [7]
  IC50: > 32 µM (inactive)
[8]
  IC50: > 32 µM (inactive)
